# Reference: paper PMC7352759, “S(+)-(2E)-N-(2-Hydroxypropyl)-3-Phenylprop-2-Enamide (KM-568): A Novel Cinnamamide Derivative with Anticonvulsant Activity in Animal Models of Seizures and Epilepsy” (International Journal of Molecular Sciences, 2020)
# Columns and labels:
# rats [1] = assay: Maximal electroshock test (MES), rats; assay type: in vivo; settings: for ED50: Rattus norvegicus, 95% confidence interval in parentheses
# Procedure: (§1) In vivo activity testing was performed at the Epilepsy Branch, National Institute of Neurological Disorders and Stroke, National Institutes of Health (NIH, Bethesda, USA) within the Anticonvulsant Screening Program (ASP) (currently known as the Epilepsy Therapy Screening Program (ETSP)). Pharmacological evaluation was planned and performed in accordance with the Institute of Laboratory Resources polices on the humane care of laboratory animals and approved by the University of Utah’s Institutional Animal Care and Use Committee (IACUC). All testing protocols were previously published as well as they are available on the NIH website. In the tests, albino mice Carworth Farms No.1 (CF-1) (Charles River), C57/Bl6 mice (Charles River), Frings mice (University of Utah) or male rats Sprague–Dawley (Charles River) were used. All animals were housed, fed, and handled in a manner consistent with the recommendations in the National Council Publication, ‘Guide for the Care and Use of Laboratory animals’ [51]. The tested compound was suspended in 0.5% methylcellulose.
# (§2) After intraperitoneal or oral administration of compound KM-568 at certain dose, an alternating current at 60 Hz and 50 mA (mice) or 150 mA (rats) was delivered for 0.2 sec via corneal electrodes to induce seizures. Prior to each stimulation, a drop of 0.5% tetracaine hydrochloride in saline was applied to cornea. Protection was defined as the abolition of the hindlimb tonic extension of the seizures.
# mice = assay: Maximal electroshock test (MES), mice; assay type: in vivo; settings: for ED50: Mus musculus, 95% confidence interval in parentheses
# Procedure: as §1, §2
# C57/Bl6 mice = assay: Mesial temporal lobe epilepsy model (MTLE); assay type: in vivo; settings: 114 mg/kg i.p., recording period 20–40 min
# Procedure: Adult male C57/Bl6 mice were placed in a stereotactic frame, injected with kainate (1 nmol/100 nL) and implanted with 1 bipolar electrode in the dorsal hippocampus. The animals were then allowed to recover for four weeks. Four animals chosen for tests were intraperitoneally injected with KM-568 at 114 mg/kg (ED50 obtained in 6-Hz 44 mA test). Digital EEG recordings were performed on freely moving animals for 20 min pre-injection (reference period) and from 20 to 40 min after injection (10 min before and 10 min after peak time of effect in a 6-Hz 44 mA test). Animals are used as their own controls. In the testing periods, spontaneous recurrent hippocampal paroxysmal discharges (HPD) were counted.
# [2] = tested on: rat cerebral cortex GABA receptor; assay: GABA receptor radioligand binding ([3H]GABA); settings: 10 µM; non-selective agonist radioligand
# Procedure: In order to identify molecular mechanism of action, KM-568 was tested at 10 µM in three radioligand binding assays: rat cerebral cortex GABA receptor non-selective agonist radioligand, AMPA (α-amino-3-hydroxy-5-methyl-4-isoxazolepropionic acid) receptor agonist radioligand, and NMDA (N-methyl-D-aspartate) receptor antagonist radioligand as well as one functional assay involving a human recombinant TRPV1 receptor expressed in CHO cells (agonist and antagonist effects).
# Tests were performed by Eurofins Cerep (Eurofins CEREP SA, Celle-Lévescault, France) as a commercial service. In radioligand assays, rat cerebral cortex GABA receptor as well as rat cerebral cortex AMPA (α-amino-3-hydroxy-5-methyl-4-isoxazolepropionic acid) and NMDA (N-methyl-D-aspartate) receptors with 10 nM [^3H]GABA, 8 nM [^3H]AMPA, and 5 nM [^3H]CGP39653, respectively, were used. The results were detected by means of scintillation counting. In functional assays, a human recombinant TRPV1 receptor expressed in Chinese hamster ovary (CHO) cells with 1 µM capsaicin or 30 nM capsazepine were used. Fluorimetry was used as a detection method.
# rats [3] = assay: Subcutaneous metrazol seizure threshold test (scMET), rats; assay type: in vivo; settings: for ED50: Rattus norvegicus; for scMET Results (protected/tested animals): i.p.
# Procedure: as §1
# The tested compound was administered i.p. or p.o. at certain dose. Then, subcutaneous injection of metrazol (syn. pentetrazol, pentylenepentetrazol) dissolved in 0.9% NaCl at the dose of 85 mg/kg (mice) or 70 mg/kg (rats) was performed to induce seizures. Protection was scored if there was not an observed episode of clonic spasm of at least 5 sec.
# corneal kindled mice = assay: Corneal kindled seizure model in mice; assay type: in vivo; settings: for Average Seizure Score / Results (protected/tested animals): corneal kindled mice, i.p.
# Procedure: Mice were stimulated via corneal electrodes (3 mA, 60 Hz, 3 sec) for an average of 12 days, 4 h apart. Prior to each stimulation, a drop of 0.5% tetracaine hydrochloride in saline was applied to the cornea. After development of five consecutive seizure stages at level 5 according to the Racine scale, animals were considered kindled. The groups of 8 mice received an intraperitoneal injection of appropriate doses of KM-568. […] Mice were scored as protected if the seizure score was less than or equal to three and not protected if the seizure score was more than three, based on the Racine scoring system.
smiles,measurement,setting,value
"C[C@H](O)CNC(=O)/C=C/c1ccccc1 [KM-568, S(+)-(2E)-N-(2-hydroxypropyl)-3-phenylprop-2-enamide]",ED50,"rats [1]; ip, 0.25 h",27.6 mg/kg
same,ED50,"rats [1]; po, 1.0 h",30.8 mg/kg
same,MES Results (protected/tested animals),"rats [1]; i.p., 15 mg/kg, 0.25 h",1/8
same,MES Results (protected/tested animals),"rats [1]; i.p., 22 mg/kg, 0.25 h",3/8
same,MES Results (protected/tested animals),"rats [1]; i.p., 30 mg/kg, 0.25 h",5/8
same,MES Results (protected/tested animals),"rats [1]; i.p., 60 mg/kg, 0.25 h",7/8
same,MES Results (protected/tested animals),"rats [1]; p.o., 20.0 mg/kg, 1.0 h",1/8
same,MES Results (protected/tested animals),"rats [1]; p.o., 30.0 mg/kg, 1.0 h",3/8
same,MES Results (protected/tested animals),"rats [1]; p.o., 35.0 mg/kg, 1.0 h",5/8
same,MES Results (protected/tested animals),"rats [1]; p.o., 40.0 mg/kg, 1.0 h",7/8
same,ED50,"mice; ip, 0.25 h",44.5 mg/kg
same,ED50,"mice; po, 0.5 h",86.6 mg/kg
same,MES Results (protected/tested animals),"mice; i.p., 25 mg/kg, 0.25 h",0/8
same,MES Results (protected/tested animals),"mice; i.p., 38 mg/kg, 0.25 h",1/8
same,MES Results (protected/tested animals),"mice; i.p., 41 mg/kg, 0.25 h",0/8
same,MES Results (protected/tested animals),"mice; i.p., 42 mg/kg, 0.25 h",2/8
same,MES Results (protected/tested animals),"mice; i.p., 44 mg/kg, 0.25 h",5/8
same,MES Results (protected/tested animals),"mice; i.p., 50 mg/kg, 0.25 h",7/8
same,MES Results (protected/tested animals),"mice; p.o., 50 mg/kg, 0.5 h",0/8
same,MES Results (protected/tested animals),"mice; p.o., 60 mg/kg, 0.5 h",2/8
same,MES Results (protected/tested animals),"mice; p.o., 70 mg/kg, 0.5 h",2/8
same,MES Results (protected/tested animals),"mice; p.o., 90 mg/kg, 0.5 h",3/8
same,MES Results (protected/tested animals),"mice; p.o., 120 mg/kg, 0.5 h",7/8
same,MES Results (protected/tested animals),"mice; p.o., 150 mg/kg, 0.5 h",8/8
same,"Effect (% of Baseline), HPD counts",C57/Bl6 mice,73.9 % of Baseline
same,Mean HPD Counts,C57/Bl6 mice,12.8
same,Effect in GABA receptor radioligand binding assay,[2],No significant effects
same,ED50,"rats [3]; ip, 0.25 h, 95% confidence interval in parentheses",41.7 mg/kg
same,ED50,"rats [3]; po, 1.0 h, doses 62.5, 125.0, 250.0 mg/kg",> 250 mg/kg
same,scMET Results (protected/tested animals),"rats [3]; 30 mg/kg, 0.25 h",1/8
same,scMET Results (protected/tested animals),"rats [3]; 45 mg/kg, 0.25 h",4/8
same,scMET Results (protected/tested animals),"rats [3]; 60 mg/kg, 0.25 h",8/8
same,scMET Results (protected/tested animals),"rats [3]; 95 mg/kg, 0.25 h",8/8
same,ED50,"corneal kindled mice; Mus musculus, ip, mice, 0.5 h (table title)",79.2 mg/kg
same,Average Seizure Score,corneal kindled mice; 57 mg/kg,4.0
same,Results (protected/tested animals),corneal kindled mice; 57 mg/kg,1/8
same,Average Seizure Score,corneal kindled mice; 84 mg/kg,3.625
same,Results (protected/tested animals),corneal kindled mice; 84 mg/kg,5/8
same,Average Seizure Score,corneal kindled mice; 115 mg/kg,0.625
same,Results (protected/tested animals),corneal kindled mice; 115 mg/kg,7/8
